According to patent US20230143604A1, “QW DOSING OF GIP RECEPTOR AGONIST PEPTIDE COMPOUNDS AND USES THEREOF” (TAKEDA PHARMACEUTICAL COMPANY LIMITED, priority 2020, published 2023):
Starred links: 1 amine or outer side, 2 acyl side, 3 side chain; linkers in the order of their positions; H or OH if unused. Non-standard residues stand in square brackets, D forms with d. Residues, ends and D or L forms follow the SMILES beside them. Groups on a side chain read outwards from the residue. *: point of attachment. C18 diacid = O=C(O)CCCCCCCCCCCCCCCCC(=O)*; γGlu = O=C(O)[C@H](CCC(=O)[*:2])N[*:1]; NMeY = CN[C@@H](Cc1ccc(O)cc1)C(=O)O; AEEA = NCCOCCOCC(=O)O; Aib = CC(C)(N)C(=O)O

Assay: Solubility in phosphate buffer pH 7.4
Summary of the method: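 Solubility at pH 7.4 determined by stepwise addition of 200 mM phosphate buffer in 100 μL increments to 3 mg peptide, mixing briefly each time, until no insoluble material remained, then measured by liquid chromatography.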

[1] = pH 7.4, aqueous buffer, pH 7.4 Phosphate Buffer - Solubility, 200 mM Phosphate buffer pH 7.4
[2] = pH 7.4, solubility in phosphate buffer at pH 7.4, 200 mM phosphate buffer pH 7.4

Row | SMILES | solubility [1] | solubility [2]
1 | CC[C@H](C)[C@H](NC(=O)[C@H](CO)NC(=O)[C@H](Cc1ccc(O)cc1)NC(=O)[C@H](CC(=O)O)NC(=O)[C@H](CO)NC(=O)[C@@H](NC(=O)[C@H](Cc1ccccc1)NC(=O)[C@@H](NC(=O)CNC(=O)[C@H](CCC(=O)O)NC(=O)C(C)(C)NC(=O)[C@H](Cc1ccc(O)cc1)NC)[C@@H](C)O)[C@@H](C)CC)C(=O)N[C@@H](C)C(=O)N[C@@H](CC(C)C)C(=O)N[C@@H](CC(=O)O)C(=O)N[C@@H](CCCNC(=N)N)C(=O)NC(C)(C)C(=O)N[C@@H](C)C(=O)N[C@@H](CCC(N)=O)C(=O)NC(C)(C)C(=O)N[C@@H](CC(=O)O)C(=O)N[C@@H](Cc1ccccc1)C(=O)N[C@H](C(=O)N[C@@H](CC(N)=O)C(=O)N[C@@H](Cc1c[nH]c2ccccc12)C(=O)N[C@@H](CC(C)C)C(=O)N[C@@H](CC(C)C)C(=O)N[C@@H](C)C(=O)N[C@@H](CCCCNC(=O)COCCOCCNC(=O)COCCOCCNC(=O)CC[C@H](NC(=O)CC[C@H](NC(=O)CCCCCCCCCCCCCCCCC(=O)O)C(=O)O)C(=O)O)C(=O)N[C@@H](CCCNC(=N)N)C(=O)N1CCC[C@H]1C(=O)N[C@@H](CO)C(=O)N[C@@H](CO)C(=O)NCC(=O)N[C@@H](C)C(=O)N1CCC[C@H]1C(=O)N1CCC[C@H]1C(=O)N1CCC[C@H]1C(=O)N[C@@H](CO)C(N)=O)C(C)C [Compound 58] (H-[NMeY][Aib]EGTFISDYSIALDR[Aib]AQ[Aib]DFVNWLLAK([AEEA-AEEA-γGlu-γGlu-C18 diacid])RPSSGAPPPS-NH2) | ≥ 30 mg/mL | ≥ 15 mg/mL
2 | CC[C@H](C)[C@H](NC(=O)[C@H](CO)NC(=O)[C@H](Cc1ccc(O)cc1)NC(=O)[C@H](CC(=O)O)NC(=O)[C@H](CO)NC(=O)[C@@H](NC(=O)[C@H](Cc1ccccc1)NC(=O)[C@@H](NC(=O)CNC(=O)[C@H](CCC(=O)O)NC(=O)C(C)(C)NC(=O)[C@H](Cc1ccc(O)cc1)NC)[C@@H](C)O)[C@@H](C)CC)C(=O)N[C@@H](C)C(=O)N[C@@H](CC(C)C)C(=O)N[C@@H](CC(=O)O)C(=O)N[C@@H](CCCNC(=N)N)C(=O)NC(C)(C)C(=O)N[C@@H](C)C(=O)N[C@@H](CCC(N)=O)C(=O)NC(C)(C)C(=O)N[C@@H](CC(N)=O)C(=O)N[C@@H](Cc1ccccc1)C(=O)N[C@H](C(=O)N[C@@H](CC(N)=O)C(=O)N[C@@H](Cc1c[nH]c2ccccc12)C(=O)N[C@@H](CC(C)C)C(=O)N[C@@H](CC(C)C)C(=O)N[C@@H](C)C(=O)N[C@@H](CCCCNC(=O)COCCOCCNC(=O)COCCOCCNC(=O)CC[C@H](NC(=O)CC[C@H](NC(=O)CCCCCCCCCCCCCCCCC(=O)O)C(=O)O)C(=O)O)C(=O)N[C@@H](CO)C(=O)N1CCC[C@H]1C(=O)N[C@@H](CO)C(=O)N[C@@H](CO)C(=O)NCC(=O)N[C@@H](C)C(=O)N1CCC[C@H]1C(=O)N1CCC[C@H]1C(=O)N1CCC[C@H]1C(=O)N[C@@H](CO)C(N)=O)C(C)C [Compound 59] (H-[NMeY][Aib]EGTFISDYSIALDR[Aib]AQ[Aib]NFVNWLLAK([AEEA-AEEA-γGlu-γGlu-C18 diacid])SPSSGAPPPS-NH2) | ≥ 30 mg/mL | ≥ 15 mg/mL
